# Experimental data as given in patent publication US10251398B2, “Improving shelf life and color profile of resin compositions with silver nanoparticles” (priority 2013, dated 2019).
# Assays:
# [1] = in water; cited from earlier work
# [2] = silver benzoate combined with solvent DMAEMA; FIG. 1
# Source text: FIG. 9 compares the resin compositions of FIG. 7 (A) with the color profiles of various resin compositions prepared with the silver benzoate/DMAEMA mixture added to the base resin before mixing with the catalyst resin to polymerize and cured by either light-curing or self-curing (B).
Compound,water solubility [1],change in color over time [2]
"C=C(C)C(=O)OC [methyl methacrylate (MMA), methyl methacrylate]",about 1.6 g in 100 g of water,–
O=C([O-])c1ccccc1.[Ag+] [silver benzoate],–,become darker over time
